Reference: PMC9763021, “Comprehensive Assessment of Biomolecular Interactions of Morpholine-Based Mixed Ligand Cu(II) and Zn(II) Complexes of 2,2′-Bipyridine as Potential Anticancer and SARS-CoV-2 Agents: A Synergistic Experimental and Structure-Based Virtual Screening” (Bioinorganic Chemistry and Applications, 2022)

Columns and labels:
Shigella flexneri = assay: Agar disc diffusion, strain E; assay type: cell-based; design: (inhibition %): concentration or dose not given beside the values; details: for diameter of the clear zone inhibition: control = 6 mm
Protocol: (§1) In-vitro antimicrobial properties were evaluated for all samples by the agar disc diffusion method towards different fungal and bacterial strains. Additionally, the reported inhibition zone values were comparatively analyzed with the standard antifungal drugs ketoconazole and amphotericin B as well as the standard antibiotic medications streptomycin and amikacin.
(§2) The current research has a curious focus on the in vitro antimicrobial properties of biological systems because these studies are crucial for developing effective antibacterial and antifungal medications. […] It can also be spelled out based on the chelation theory proposed by Overtone and Tweedy. Chelation theory points out that the partial exchanging of the positive charge of the metal center with donor moieties, and overlap of the ligand orbitals will reduce the greater degree of the metal ion's polarity, which ultimately rises the delocalization of π and d electrons over the full chelated ring system. By raising the size of the metal ion due to the retarding of polarization, chelation may also enhance the complexes' lipophilic characteristics, which further stimulate the lipid membrane permeability and break down the bacteria' enzymes responsible for cell wall formation, therefore slowing down the regular cell processes. By preventing the production of cell walls/proteins/DNA, including by obstructing folate metabolism and the cytoplasmic membrane, antimicrobial drugs frequently either fully eliminate microbes or only prevent their cell growth. Additionally, the samples' mode of action may be employed in disrupting the cell's respiration process by forming an H-bond during the morpholine-fused iminic group coordinated with the active metal center of its components, inhibiting proliferation of the cell. […] The difference in the antimicrobial efficacy of some of the compounds towards various microorganisms influences on the impermeability of the cells of the germs or the diversity of ribosomes of the microbes. The % of the inhibition of all substances is estimated from (45) (Table 9).
(§3) (A, B, C, D, and E are represented as gram negative bacteria species Escherichia coli, Salmonella enteric serovar typhi, Salmonella enteric serovar typhi, Pseudomonas aeruginosa, and Shigella flexneri, respectively. F & G are denoted as gram positive bacteria species Staphylococcus aureus and Bacillus cereus. H, I, and J are represented as fungal strains Aspergillus niger, Candida albicans, and Mucor indicus. Standard drugs for bacterial strains: Amikacin & Streptomycin Standard drugs for fungal strains: Ketoconazole and Amphotericin B. [Control (DMSO) = 6 mm].(44) Inhibition %=T–C/T×100, where T and C are represented as the diameter of microbial growth of the sample plates and the control plate (6 mm), respectively. Error limits ±2.5–5.0% (P ≤ 0.05).

Mucor indicus = assay: Agar disc diffusion, strain J; assay type: cell-based; design: (inhibition %): concentration or dose not given beside the values; details: for diameter of the clear zone inhibition: control = 6 mm
Protocol: as §1, §2, §3

[1] = tested on: ethidium bromide bound DNA (CT-DNA); assay: Ethidium bromide-DNA fluorescence quenching (emission titration); assay type: binding, calf thymus; details: for Scatchard analysis KSA / Scatchard analysis n / LWB method KLB: DNA; for Kass (DNA), SV method II / KSV (DNA), SV method I: EB-DNA; for KSV (DNA), SV method I: 610 nm; for Kapp: KEB = 10^7 M^−1 at 50 μM EB; for Kq (DNA), SV method I: Kq=KSV/τ0, τ0 = 10^−8 S; for LWB method KLB: Lineweaver–Burk; for P (DNA), ratio of fluorescence quantum efficiency: intercept of F/F0 vs 1/[DNA]; for n (DNA), SV method II: number of binding sites; for ∆Gb° (DNA), SV method II: –RT lnKass, 298 K
Protocol: The experiment was performed in the 200 to 800 nm region. This is supporting evidence for the complexes' manner of deoxyribonucleic acid binding. When DNA (200 μM) was present or absent, we carefully monitored the intensity variations between 610 nm and 510 nm during the initial emission and excitation of EB [6, 28, 37]. Similarly, emission titrations for BSA interaction with different concentrations between 2.5 μM and 25 μM for all substances were conducted in a Tris-HCl buffer solution (pH: 7.4) between the regions of 300 nm and 400 nm.
Emission titration is a more sensitive approach to examining the binding tendency between chemical substances and biomolecules. The emission measurements are extensively supported to scrutinize the interacting modes between compounds and deoxyribonucleic acid. In the presence of deoxyribonucleic acid (240 μM) in a Tris-HCl buffer solution (pH: 7.2) at room temperature, none of the test compounds emitted fluorescence. The titrations were also executed with the EB molecule, which is also a comparatively low fluorescence emission in Tris-HCl buffer solution (pH: 7.2) in the free state. […] In the investigation, the addition of sample concentrations (0–240 μM) to the solution of DNA-EB results in a notable reduction in the emission intensity at 610 nm (Figure 5 and Table 4). As a result of intense intercalation, the complexes displace the EB in the DNA-EB adduct, causing the emission intensity to drop. The photoelectron shift from the DNA's guanine base to the excited states may be the cause of the frequency of quenching in the emission of chemicals by DNA. Therefore, EB can be utilized as a fluorescent probing agent in the competitive binding experiment.
K SV is denoted as Stern–Volmer binding constant; Kass is represented as association binding constant; Kapp is represented as apparent binding constant, Kapp=KEB[EB]/[compound]=500/[compound], KEB = 10^7 M^−1 at the concentration of 50 μM EB; Gibb's free energy change ΔGb°=–RT lnKass; Kq is represented as bimolecular quenching rate constant/Stern–Volmer dynamic quenching rate constant (Kq=KSV/τ0), average life time of the biomolecular quenching in the absence of a quencher (τ0) = 10^−8 S; Gibb's free energy change ΔGb°=–RT lnKass (where R = […], T = 298 K); KLB is represented as Lineweaver–Burk (LWB) binding constant; KSA is represented as Scatchard association binding constant; Kapp is denoted as apparent binding constant; n is the number of binding sites; P is a ratio of fluorescence quantum efficiency of DNA bound and free complex (P=ɸb/ɸf), which is obtained as intercept from plot F/F0 vs. 1/[DNA], Error limit is ± 2.5% (P < 0.025).(12) Fcorr=Fobs×e^Aex×dex+Aem×dem/2=Fobs×e^Aex+Aem/2, where Fcorr and Fobs are represented as the IFE-corrected fluorescence and observed (uncorrected) emission intensities, respectively. dex and dem are denoted as the cuvette path lengths in the excitation and emission directions, respectively. Aex and Aem are represented as the change in absorbance at the excitation and fluorescence wavelengths, respectively.(13) F0 /F=1+KSVQ=1+Kq τ0, where [Q] is represented as the sample concentration, the emission intensities F0 and F of DNA/BSA in the absence and presence of the quencher (sample), respectively.(14) F0 /F−1=F0−F/F=KSVQlogF0−F/F=logKass+n logQ, (15) KEBEB=Kappcompound, (16) 1/F0−F=1/F0 KLBQ+1/F0 , (17) γ/CF =KSCn−γ, where γ = [(F0 − F)/F0], and CF is denoted as the concentration of sample alone.
The linear regression correlation coefficient (R^2) values for all substances further confirmed that there is no found inner filter effect due to these values are greater than 0.95. Moreover, the following Stern–Volmer equations (13)–(15) were employed to determine the KSV, Kq, and n values (Table 4). The KSV findings were measured from the slope to intercept ratio of the linear regression plot of F0/F vs. [Q] by the SV method I (Figure S22). […]

[2] = tested on: Salmonella enteric serovar typhi; assay: Agar disc diffusion, strain B; assay type: cell-based; details: for diameter of the clear zone inhibition: control = 6 mm
Protocol: as §1, §2, §3

[3] = tested on: Salmonella enteric serovar typhi; assay: Agar disc diffusion, strain C; assay type: cell-based; details: for diameter of the clear zone inhibition: control = 6 mm
Protocol: as §1, §2, §3

Structure (SMILES) | (inhibition %) (Shigella flexneri) [%] | diameter of the clear zone inhibition (Shigella flexneri) [mm] | (inhibition %) (Mucor indicus) [%] | diameter of the clear zone inhibition (Mucor indicus) [mm] | Scatchard analysis KSA [1] [M⁻¹] | Scatchard analysis n [1] | Kass (DNA), SV method II [1] [M⁻¹] | KSV (DNA), SV method I [1] [M⁻¹] | Kapp [1] [M⁻¹] | Kq (DNA), SV method I [1] [M⁻¹ s⁻¹] | LWB method KLB [1] [M⁻¹] | P (DNA), ratio of fluorescence quantum efficiency [1] | n (DNA), SV method II [1] | ∆Gb° (DNA), SV method II [1] [kJM^−1] | (inhibition %) [2] [%] | diameter of the clear zone inhibition [2] [mm] | (inhibition %) [3] [%] | diameter of the clear zone inhibition [3] [mm]
[O-]c1ccccc1N=Cc1ccc(N2CCOCC2)cc1.[O-]c1ccccc1N=Cc1ccc(N2CCOCC2)cc1.[Zn+2].c1ccc(-c2ccccn2)nc1 [(2a), [Zn(L)2(bpy)]] | 45 | 11 | 60 | 15 | 30190 | 0.971 | 17368 | 32694 | 6.569e+06 | 3.2694e+12 | 15630 | 0.1832 | 1.055 | −24.187 | 33 | 09 | 33 | 09
Oc1ccccc1N=Cc1ccc(N2CCOCC2)cc1 [(HL), 2-(4-morpholinobenzylideneamino)phenol] | 57 | 14 | 45 | 11 | 23194 | 1.096 | 9606 | 11636 | 5.829e+06 | 1.1636e+12 | 6985 | 0.0900 | 0.973 | −22.720 | 33 | 09 | 45 | 11
[Cu+2].[O-]c1ccccc1N=Cc1ccc(N2CCOCC2)cc1.[O-]c1ccccc1N=Cc1ccc(N2CCOCC2)cc1.c1ccc(-c2ccccn2)nc1 [(1a), [Cu(L)2(bpy)]] | 45 | 11 | 50 | 12 | 33151 | 1.033 | 50564 | 52474 | 9.894e+06 | 5.2474e+12 | 18846 | 0.2000 | 1.168 | −26.835 | 40 | 10 | 50 | 12
